According to patent US7304174B2, “CaSR antagonist” (Japan Tobacco Inc., priority 2003, dated 2007):

Legend:
[1] = biological target: T1, human calcium receptor (Homo sapiens, UniProt P41180); assay: Evaluation of antagonistic action on calcium receptor using reporter gene (luciferase); format: cell-based; conditions: transformed rat adrenal derived cells, 5 mM calcium chloride, culture 4 hrs, luciferase activity; read-out: Reporter gene assay (IC50, concentration showing 50% inhibitory rate)
T1 construct: expressed in transfected cells; host or cells: cell strain derived from rat adrenal, co-transformed with luciferase cDNA
T1 sequence (P41180 20-1078): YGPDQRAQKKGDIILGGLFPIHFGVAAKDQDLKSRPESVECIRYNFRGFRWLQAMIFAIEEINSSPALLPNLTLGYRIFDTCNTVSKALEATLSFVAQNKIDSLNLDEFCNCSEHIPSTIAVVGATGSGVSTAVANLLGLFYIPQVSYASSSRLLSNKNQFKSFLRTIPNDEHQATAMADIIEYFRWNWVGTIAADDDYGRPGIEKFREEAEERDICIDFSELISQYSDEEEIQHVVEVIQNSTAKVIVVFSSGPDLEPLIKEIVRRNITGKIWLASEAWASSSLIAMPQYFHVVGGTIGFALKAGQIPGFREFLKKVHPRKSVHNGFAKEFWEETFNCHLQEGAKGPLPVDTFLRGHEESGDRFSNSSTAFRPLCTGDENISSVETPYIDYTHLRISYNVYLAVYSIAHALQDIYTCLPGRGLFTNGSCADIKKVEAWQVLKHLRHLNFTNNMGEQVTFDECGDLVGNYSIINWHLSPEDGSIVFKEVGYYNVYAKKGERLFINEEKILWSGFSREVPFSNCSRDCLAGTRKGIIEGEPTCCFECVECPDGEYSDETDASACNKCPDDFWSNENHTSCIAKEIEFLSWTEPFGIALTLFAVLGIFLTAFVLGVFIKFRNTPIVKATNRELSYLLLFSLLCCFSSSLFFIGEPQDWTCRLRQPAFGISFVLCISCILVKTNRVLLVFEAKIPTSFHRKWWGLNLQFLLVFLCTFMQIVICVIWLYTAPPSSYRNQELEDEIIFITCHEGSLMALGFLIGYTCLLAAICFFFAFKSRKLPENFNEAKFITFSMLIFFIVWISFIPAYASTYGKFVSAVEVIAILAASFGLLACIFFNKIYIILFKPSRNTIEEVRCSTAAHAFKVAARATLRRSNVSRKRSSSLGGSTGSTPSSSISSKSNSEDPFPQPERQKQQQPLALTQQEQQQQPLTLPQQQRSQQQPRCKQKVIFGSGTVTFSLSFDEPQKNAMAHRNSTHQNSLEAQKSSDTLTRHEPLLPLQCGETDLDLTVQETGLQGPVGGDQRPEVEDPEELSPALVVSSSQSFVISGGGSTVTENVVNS
Procedure, shortened: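 Rat adrenal-derived cells transfected with luciferase and human calcium receptor cDNA, in F12 with 0.5% dialyzed horse serum and 0.25% dialyzed fetal bovine serum. Luciferase luminescence gave % inhibition vs control and blank; IC50 at 50% inhibition.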

[2] = test system: PTH secretion; assay: Concomitant administration of test compound and estrogen: blood PTH with time; format: in vivo, ovariectomized rats; conditions: for PTH (1–84) concentration 0.25 hr: day 16, 0.25 hr; for PTH (1–84) concentration 0.5 hr: day 16, 0.5 hr; for PTH (1–84) concentration 1 hr: day 16, 1 hr; for PTH (1–84) concentration 2 hr: day 16, 2 hr; for PTH (1–84) concentration 4 hr: day 16, 4 hr; for PTH (1–84) concentration 0 hr: day 16, immediately before oral administration
Experimental: The 13-week-old ovariectomized rats were divided into 4 groups of a control group (Group A), an estrogen administration group (Group B), a test compound administration group (Group C), and a test compound and estrogen concomitant administration group (Group D). One sham control group (E group) subjected to a sham surgery was also established. Estradiol was dissolved in 5% benzyl alcohol-corn oil and subcutaneously administered to an estrogen administration groups (Group B and Group D) at the dose of 10 μg/kg. 5% Benzyl alcohol-corn oil was subcutaneously administered to groups (Group A and Group C) free from administration of estrogen. The compound of Example 1-1 was suspended in 0.5% methyl cellulose solution and orally administered to groups (Group C and Group D) to be administered with the test compound at the dose of 3 mg/kg. As regards the groups (Group A and Group B) free from administration of the test compound, 0.5% methyl cellulose solution was orally administered.
In addition, blood was drawn with time for the measurement of blood PTH at day 16 of administration. The blood was drawn in each group from the tail vein immediately before oral administration and 0.25, 0.5, 1, 2 and 4 hr later, and serum was obtained. For serum PTH measurement, a commercially available ELISA kit (“rat intact PTH ELISA kit”, Immutopics) was used.

[3] = test system: PTH secretion; assay: PTH secretion action, Experimental Example 2 (serum PTH after oral administration); format: in vivo, male SD rats; conditions: test compound administration group, 1 mg/5 ml/kg oral, rats fasted 20 hr
Experimental: The test compound was orally administered to 5 to 9-week-old male SD rats (Charles River Japan, Inc.) fasted for 20 hr, using a solvent (0.5% methyl cellulose solution) at a dose of 1 mg/5 ml/kg. A solvent alone was orally administered to the control group at a dose of 5 ml/kg. The blood was drawn from the tail vein immediately before and, 15 min, 30 min, 60 min and 120 min after the administration of the test compound, and serum was obtained. The serum PTH concentration was measured using rat PTH ELISA kit (Amersham Biosciences).

[4] = Group D concomitant with estradiol
[5] = exclusive administration (Group B estradiol; Group C Example 1-1 3 mg/kg oral)

Which IC50 [1] does the source give for `Cc1ccc(CC(C)(C)NC[C@@H](O)CO[C@H](C)c2ccccc2-c2ccc(C(=O)O)c(C)c2)cc1F` [Example 1-1, 2′-[(1R)-[(2R)-3-[[1-(3-Fluoro-4-methylphenyl)-2-methylpropan-2-yl]amino]-2-hydroxypropoxy]ethyl]-3-methylbiphenyl-4-carboxylic acid] here?
The IC50 was 24 nM.

And the “Change of blood PTH with time” value ([2]; Table 66, Example 1-1 and estrogen concomitant administration)?
The value was “a transitional increase was observed”.

And the “Change of blood PTH with time” value ([2]; Table 66, exclusive administration)?
Its value is “a transitional increase was observed”.

And the “PTH (1–84) concentration 0.25 hr” value [2, 4]?
The value was 407.35 ± 134.53 pg/mL.

And the “PTH (1–84) concentration 0.25 hr” value [2, 5]?
The value was 371.21 ± 77.74 pg/mL.

What about the “PTH (1–84) concentration 0.5 hr” value [2, 4] of the same molecule?
The value was 418.87 ± 154.78 pg/mL.

What about the “PTH (1–84) concentration 0.5 hr” value [2, 5] of the same molecule?
Its value is 370.78 ± 98.28 pg/mL.

What about the “PTH (1–84) concentration 1 hr” value [2, 4] of the same molecule?
The value was 279.76 ± 117.98 pg/mL.

What about the “PTH (1–84) concentration 1 hr” value [2, 5] of the same molecule?
Its value is 177.39 ± 96.06 pg/mL.

And the “PTH (1–84) concentration 2 hr” value [2, 4]?
Its value is 115.50 ± 74.98 pg/mL.

And the “PTH (1–84) concentration 2 hr” value [2, 5]?
The value was 117.51 ± 123.12 pg/mL.

What about the “PTH (1–84) concentration 4 hr” value [2, 4] of the same molecule?
The value was 58.84 ± 16.75 pg/mL.

And the “PTH (1–84) concentration 4 hr” value [2, 5]?
Its value is 56.50 ± 12.29 pg/mL.

What about the “PTH (1–84) concentration 0 hr” value ([2]; Group D: Example 1-1 3 mg/kg oral and estradiol 10 μg/kg s.c. concomitant) of the same molecule?
The value was 27.12 ± 4.58 pg/mL.

What about the “PTH (1–84) concentration 0 hr” value ([2]; exclusive administration (Group B estradiol 10 μg/kg s.c.; Group C Example 1-1 3 mg/kg oral)) of the same molecule?
Its value is 31.19 ± 16.28 pg/mL.

And the “Serum PTH concentration 15 min later” value ([3]; 15 min)?
Its value is 43.9 ± 2.0 pg/mL.

What about the “Serum PTH concentration 30 min later” value ([3]; 30 min) of the same molecule?
Its value is 25.0 ± 3.2 pg/mL.

And the “Serum PTH concentration 60 min later” value ([3]; 60 min)?
Its value is 17.9 ± 2.0 pg/mL.

What about the “Serum PTH concentration 120 min later” value ([3]; 120 min) of the same molecule?
Its value is 14.8 ± 1.6 pg/mL.
